The record followed here is patent US9540377B2, “2,6,7,8 substituted purines as HDM2 inhibitors” (Merck Sharp & Dohme Corp., priority 2013, dated 2017).

Each structure is given as a SMILES string.

Chain of HDM2 (truncated, residues 17 to 125, containing p53 binding surface) (Q00987 17-125): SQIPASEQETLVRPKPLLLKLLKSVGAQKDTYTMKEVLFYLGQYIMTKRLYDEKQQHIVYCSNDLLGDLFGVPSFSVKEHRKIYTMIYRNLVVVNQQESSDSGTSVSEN

The first test has as its target HDM2 (truncated, residues 17 to 125, containing p53 binding surface) (Homo sapiens (Human), UniProt Q00987). The test can be described thus: HDM2 FRET assay (inhibition of binding of FITC labeled p53-site peptide to HDM2). The following applies: Table 16. An excerpt:
IC50 DETERMINATIONS: Dose-response curves were plotted from the inhibition data, from 10 point serial dilutions of inhibitory compounds. Concentration of compound was plotted against em520/Cem495 ratio signal. To generate IC50 values, the dose-response curves were fitted to a standard sigmoidal curve and IC50 values were derived by nonlinear regression analysis.
By IC50 is commonly meant the concentration that inhibits the measured activity by half. Low values mean higher potency, high ones lower potency. With `C[C@H]1CC[C@H](Cn2c(N3CCO[C@H]4CCCC[C@H]43)nc3nc(-c4noc(=O)[nH]4)nc(-c4cncc(Cl)c4)c32)CC1` (racemic) [Example 16.131, 3-{6-(5-chloropyridin-3-yl)-7-[(trans-4-methylcyclohexyl)methyl]-8-[(cis)-octahydro-4H-1,4-benzoxazin-4-yl]-7H-purin-2-yl}-1,2,4-oxadiazol-5(4H)-one], the IC50 was 0.035 µM.
Molecule `Cc1nnc(C2CCCN2c2nc3nc(-c4noc(=O)[nH]4)nc(-c4cncc(Cl)c4)c3n2C[C@H]2CC[C@H](C)CC2)o1` (mixture of isomers) [Example 16.141, 3-{6-(5-chloropyridin-3-yl)-7-[(trans-4-methylcyclohexyl)methyl]-8-[2-(5-methyl-1,3,4-oxadiazol-2-yl)pyrrolidin-1-yl]-7H-purin-2-yl}-1,2,4-oxadiazol-5(4H)-one] showed an IC50 of 0.0268 µM.
Same read-out and setting: the value for `Cc1noc(C2CCCN2c2nc3nc(-c4noc(=O)[nH]4)nc(-c4cncc(Cl)c4)c3n2C[C@H]2CC[C@H](C)CC2)n1` (mixture of isomers) [Example 16.143, 3-{6-(5-chloropyridin-3-yl)-7-[(trans-4-methylcyclohexyl)methyl]-8-[2-(3-methyl-1,2,4-oxadiazol-5-yl)pyrrolidin-1-yl]-7H-purin-2-yl}-1,2,4-oxadiazol-5(4H)-one] was 0.00148 µM.
On the same count and under the same terms, the value for `Cc1noc(C2CCCN2c2nc3nc(C(=O)O)nc(-c4cncc(Cl)c4)c3n2C[C@H]2CC[C@H](C)CC2)n1` (mixture of isomers) [Example 16.145, 6-(5-chloropyridin-3-yl)-7-[(trans-4-methylcyclohexyl)methyl]-8-[2-(3-methyl-1,2,4-oxadiazol-5-yl)pyrrolidin-1-yl]-7H-purine-2-carboxylic acid] was 0.00392 µM; that for `Cc1noc(C2CCCN2c2nc3nc(-c4n[nH]c(=O)o4)nc(-c4cncc(Cl)c4)c3n2C[C@H]2CC[C@H](C)CC2)n1` (mixture of isomers) [Example 16.146, 5-{6-(5-chloropyridin-3-yl)-7-[(trans-4-methylcyclohexyl)methyl]-8-[2-(3-methyl-1,2,4-oxadiazol-5-yl)pyrrolidin-1-yl]-7H-purin-2-yl}-1,3,4-oxadiazol-2(3H)-one] was 0.00304 µM; that for `CO[C@H]1CCN(c2nc3nc(-c4n[nH]c(=O)o4)nc(-c4cncc(Cl)c4)c3n2C[C@H]2CC[C@H](C)CC2)[C@@H](C)C1` (racemic) [Example 16.154, 5-{6-(5-chloropyridin-3-yl)-8-[(cis)-4-methoxy-2-methylpiperidin-1-yl]-7-[(trans-4-methylcyclohexyl)methyl]-7H-purin-2-yl}-1,3,4-oxadiazol-2(3H)-one] was 0.0672 µM.
The same measure, in the same setting: with `CO[C@@H]1CCN(c2nc3nc(-c4n[nH]c(=O)o4)nc(-c4cncc(Cl)c4)c3n2C[C@H]2CC[C@H](C)CC2)[C@@H](C)C1` (racemic) [Example 16.155, 5-{6-(5-chloropyridin-3-yl)-8-[(trans)-4-methoxy-2-methylpiperidin-1-yl]-7-[(trans-4-methylcyclohexyl)methyl]-7H-purin-2-yl}-1,3,4-oxadiazol-2(3H)-one] the figure was 0.0491 µM; with `COCCOc1cc(Cl)cc(-c2nc(-c3noc(=O)[nH]3)nc3nc(N4CCO[C@@H]5CCC[C@H]54)n(C[C@H]4CC[C@H](C)CC4)c23)c1` (racemic) [Example 16.160, 3-{6-[3-chloro-5-(2-methoxyethoxyl)phenyl]-8-[(trans)-hexahydrocyclopenta[b][1,4]oxazin-4(4aH)-yl]-7-[(trans-4-methylcyclohexyl)methyl]-7H-purin-2-yl}-1,2,4-oxadiazol-5(4H)-one], 0.021 µM; with `Cc1ncc(Cl)cc1-c1nc(-c2noc(=O)[nH]2)nc2nc(N3CCO[C@@H]4CCC[C@H]43)n(C[C@H]3CC[C@H](C)CC3)c12` (racemic) [Example 16.164, 3-{6-(5-chloro-2-methylpyridin-3-yl)-8-[(trans)-hexahydrocyclopenta [b][1,4]oxazin-4(4aH)-yl]-7-[(trans-4-methylcyclohexyl)methyl]-7H-purin-2-yl}-1,2,4-oxadiazol-5(4H)-one], 0.00209 µM.

The test is the same for the next values; noted with them: Table 23.
The molecule `C[C@H]1CC[C@H](Cn2c(C(O)C3CCCCC3)nc3nc(-c4noc(=O)[nH]4)nc(-c4cccc(Cl)c4)c32)CC1` (mixture of isomers) [Example 23.5, 3-{6-(3-chlorophenyl)-8-[cyclohexyl(hydroxy)methyl]-7-[(trans-4-methylcyclohexyl)methyl]-7H-purin-2-yl}-1,2,4-oxadiazol-5(4H)-one] gave an IC50 of 0.00717 µM.
Molecule `C[C@H]1CC[C@H](Cn2c(C(O)C3CCCCC3)nc3nc(-c4n[nH]c(=O)o4)nc(-c4cccc(Cl)c4)c32)CC1` (mixture of isomers) [Example 23.7, 5-{6-(3-chlorophenyl)-8-[cyclohexyl(hydroxy)methyl]-7-[(trans-4-methylcyclohexyl)methyl]-7H-purin-2-yl}-1,3,4-oxadiazol-2(3H)-one] registered a half-maximal inhibitory concentration (IC50) of 0.0202 µM.
Regarding `CC(O)(c1nc2nc(-c3noc(=O)[nH]3)nc(-c3cccc(Cl)c3)c2n1C[C@H]1CC[C@H](C)CC1)C1CCCCC1` (mixture of isomers) [Example 23.10, 3-{6-(3-chlorophenyl)-8-(1-cyclohexyl-1-hydroxyethyl)-7-[(trans-4-methylcyclohexyl)methyl]-7H-purin-2-yl}-1,2,4-oxadiazol-5(4H)-one], the concentration for half-maximal inhibition (IC50) turned out to be 0.0156 µM.
`CC(O)(c1nc2nc(-c3n[nH]c(=O)o3)nc(-c3cccc(Cl)c3)c2n1C[C@H]1CC[C@H](C)CC1)C1CCCCC1` (mixture of isomers) [Example 23.11, 5-{6-(3-chlorophenyl)-8-(1-cyclohexyl-1-hydroxyethyl)-7-[(trans-4-methylcyclohexyl)methyl]-7H-purin-2-yl}-1,3,4-oxadiazol-2(3H)-one] registered a half-inhibitory concentration (IC50) of 0.214 µM.
With `COC(c1nc2nc(-c3n[nH]c(=O)o3)nc(-c3cccc(Cl)c3)c2n1C[C@H]1CC[C@H](C)CC1)C1CCCCC1` (mixture of isomers) [Example 23.15, 5-{6-(3-chlorophenyl)-8-[cyclohexyl(methoxy)methyl]-7-[(trans-4-methylcyclohexyl)methyl]-7H-purin-2-yl}-1,3,4-oxadiazol-2(3H)-one], the concentration for half-maximal inhibition (IC50) is 0.023 µM.
Still for that read-out and setting: with `COC(c1nc2nc(-c3n[nH]c(=O)o3)nc(-c3cccc(Cl)c3)c2n1C[C@H]1CC[C@H](C)CC1)C1CCOCC1` (mixture of isomers) [Example 23.16, 5-{6-(3-chlorophenyl)-8-[methoxy(tetrahydro-2H-pyran-4-yl)methyl]-7-[(trans-4-methylcyclohexyl)methyl]-7H-purin-2-yl}-1,3,4-oxadiazol-2(3H)-one] the figure was 0.0123 µM; with `COC(c1nc2nc(-c3noc(=O)[nH]3)nc(-c3cncc(Cl)c3)c2n1C[C@H]1CC[C@H](C)CC1)C1CCOCC1` (mixture of isomers) [Example 23.18, 3-{6-(5-chloropyridin-3-yl)-8-[methoxy(tetrahydro-2H-pyran-4-yl)methyl]-7-[(trans-4-methylcyclohexyl)methyl]-7H-purin-2-yl}-1,2,4-oxadiazol-5(4H)-one], 0.0241 µM.
The same measure, in the same setting: with `COC(c1nc2nc(-c3n[nH]c(=O)o3)nc(-c3cncc(Cl)c3)c2n1C[C@H]1CC[C@H](C)CC1)C1CCOCC1` (mixture of isomers) [Example 23.20, 5-{6-(5-chloropyridin-3-yl)-8-[methoxy(tetrahydro-2H-pyran-4-yl)methyl]-7-[(trans-4-methylcyclohexyl)methyl]-7H-purin-2-yl}-1,3,4-oxadiazol-2(3H)-one] the figure was 0.0276 µM; with `COC(c1nc2nc(-c3n[nH]c(=O)o3)nc(-c3cncc(Cl)c3)c2n1C[C@H]1CC[C@H](C)CC1)C1CCCCC1` (mixture of isomers) [Example 23.22, 5-{6-(5-chloropyridin-3-yl)-8-[cyclohexyl(methoxy)methyl]-7-[(trans-4-methylcyclohexyl)methyl]-7H-purin-2-yl}-1,3,4-oxadiazol-2(3H)-one], 0.012 µM.
The same measure, in the same setting: the value for `COC(c1nc2nc(-c3n[nH]c(=O)o3)nc(-c3cncc(Cl)c3)c2n1C[C@H]1CC[C@H](C)CC1)C1CCCC1` (mixture of isomers) [Example 23.23, 5-{6-(5-chloropyridin-3-yl)-8-[cyclopentyl(methoxy)methyl]-7-[(trans-4-methylcyclohexyl)methyl]-7H-purin-2-yl}-1,3,4-oxadiazol-2(3H)-one] was 0.00878 µM; that for `C[C@H]1CC[C@H](Cn2c(C(F)C3CCCCC3)nc3nc(-c4noc(=O)[nH]4)nc(-c4cccc(Cl)c4)c32)CC1` (mixture of isomers) [Example 23.29, 3-{6-(3-chlorophenyl)-8-[cyclohexyl(fluoro)methyl]-7-[(trans-4-methylcyclohexyl)methyl]-7H-purin-2-yl}-1,2,4-oxadiazol-5(4H)-one] was 0.0348 µM; that for `COC(C)(c1ncoc1C)c1nc2nc(-c3noc(=O)[nH]3)nc(-c3cccc(Cl)c3)c2n1C[C@H]1CC[C@H](C)CC1` (mixture of isomers) [Example 23.57, 3-{6-(3-chlorophenyl)-8-[1-methoxy-1-(5-methyl-1,3-oxazol-4-yl)ethyl]-7-[(trans-4-methylcyclohexyl)methyl]-7H-purin-2-yl}-1,2,4-oxadiazol-5(4H)-one] was 0.00207 µM.
In turn, `CC(F)(c1nc2nc(-c3n[nH]c(=O)o3)nc(-c3cncc(Cl)c3)c2n1C[C@H]1CC[C@H](C)CC1)C1CCCC1` (mixture of isomers) [Example 23.58, 5-{6-(5-chloropyridin-3-yl)-8-(1-cyclopentyl-1-fluoroethyl)-7-[(trans-4-methylcyclohexyl)methyl]-7H-purin-2-yl}-1,3,4-oxadiazol-2(3H)-one] yielded a concentration for half-maximal inhibition (IC50) of 0.00195 µM.
`COC(c1nc2nc(-c3noc(=O)[nH]3)nc(-c3cncc(Cl)c3)c2n1C[C@H]1CC[C@H](C)CC1)C1CCCC1` (mixture of isomers) [Example 23.61, 3-{6-(5-chloropyridin-3-yl)-8-[cyclopentyl(methoxy)methyl]-7-[(trans-4-methylcyclohexyl)methyl]-7H-purin-2-yl}-1,2,4-oxadiazol-5(4H)-one] returned a concentration for half-maximal inhibition (IC50) of 0.00464 µM.
